Experimental data: PubChem BioAssay (NCI)
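48-hour exposure; five concentrations; linearly interpolated endpoints. TGI denotes the concentration required for complete inhibition of growth.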

Key:
Assay in all cases: DTP human tumour cell line panel, 48 h
[1] = system: K-562 leukemia
[2] = system: COLO 205 colon
[3] = system: SNB-19 CNS
[4] = system: NCI-H23 lung
[5] = system: OVCAR-5 ovarian
[6] = system: UACC-62 melanoma
[7] = system: SR leukemia
[8] = system: NCI-H226 lung
[9] = system: OVCAR-4 ovarian
[10] = system: SNB-75 CNS
[11] = system: U251 CNS
[12] = system: A549 NSCLC
[13] = system: HOP-62 NSCLC
[14] = system: CAKI-1 renal
[15] = system: ACHN renal
[16] = system: HL-60(TB) leukemia
[17] = system: OVCAR-8 ovarian
[18] = system: HCT-116 colon
[19] = system: RPMI-8226 leukemia

Row | SMILES | TGI [1] [µM] | TGI [2] [µM] | TGI [3] [µM] | TGI [4] [µM] | TGI [5] [µM] | TGI [6] [µM] | TGI [7] [µM] | TGI [8] [µM] | TGI [9] [µM] | TGI [10] [µM] | TGI [11] [µM] | TGI [12] [µM] | TGI [13] [µM] | TGI [14] [µM] | TGI [15] [µM] | TGI [16] [µM] | TGI [17] [µM] | TGI [18] [µM] | TGI [19] [µM]
1 | CC(C)[Si]1(C(C)C)OCC2OC(n3c(C(=O)c4ccccc4)cc(=O)[nH]c3=O)CC2O[Si](C(C)C)(C(C)C)O1 (centres undefined) | > 100 | 10.8 | 22.4 | 6.13 | 10.1 | 7.62 | > 23.8 | 5.87 | 8.36 | 6.7 | 9.85 | 20.5 | 21.3 | 17.9 | 8.58 | > 28.6 | 4.43 | 9.95 | > 23.3
2 | COc1cc(C(C[N+](=O)[O-])SC(C)=O)ccc1OCc1ccccc1 (centres undefined) | 5.45 | 13 | 20.9 | 12.3 | 29.6 | 8.68 | 4.86 | 18.1 | 27.7 | 32.4 | 22.7 | 25.4 | 14.3 | 27.7 | 24.7 | 1.57 | 13.6 | 8.26 | 4.61
3 | COC1CC(C)([N+](=O)[O-])C(O)C(C)O1 (centres undefined) | > 100 | > 100 | > 100 | > 100 | > 100 | > 100 | > 100 | > 100 | > 100 | > 100 | > 100 | > 100 | > 100 | > 100 | > 100 | > 100 | > 100 | > 100 | > 100
4 | C[C@@H]1OC2(O)[C@H]3CCCN3S(=O)(=O)CCN2C1=O (some centres undefined) | > 100 | > 100 | > 100 | > 100 | > 100 | > 100 | > 100 | > 100 | > 100 | > 100 | > 100 | > 100 | > 100 | > 100 | > 100 | > 100 | > 100 | > 100 | > 100
5 | COc1cc(C(c2cccc3ccccc23)N2C(=O)CCC2C(=O)O)cc(OC)c1OC (centres undefined) | > 100 | > 100 | > 100 | > 100 | > 100 | > 100 | > 100 | > 100 | > 100 | > 100 | > 100 | > 100 | > 100 | > 100 | > 100 | > 100 | > 100 | > 100 | > 100
6 | CCCCC(/C=C\COC1CCCCO1)=C/C(=O)OCC (centres undefined) | > 100 | > 100 | > 100 | > 100 | > 100 | > 100 | > 100 | > 100 | > 100 | > 100 | > 100 | > 100 | > 100 | > 100 | > 100 | 67.5 | > 100 | > 100 | > 100
7 | O/C(=C\c1nc2ccccc2nc1/C=C(\O)c1ccc(F)cc1)c1ccc(F)cc1 | > 100 | > 100 | > 100 | > 100 | > 100 | > 100 | > 100 | > 100 | > 100 | > 100 | > 100 | > 100 | > 100 | > 100 | > 100 | > 100 | > 100 | > 100 | > 100
8 | C[C@@]1(Cc2ccccc2)C(=O)N2[C@@H](CO)C(c3ccccc3)O[C@]2(C)c2ccccc21 (some centres undefined) | > 100 | > 100 | > 100 | > 100 | > 100 | > 100 | > 100 | > 100 | > 100 | > 100 | > 100 | > 100 | > 100 | > 100 | > 100 | > 100 | > 100 | > 100 | > 100
9 | Cc1cc(S(=O)(=O)Nc2n[nH]c(Nc3ccc4ccccc4c3)n2)c(S)cc1Cl | > 100 | > 100 | > 100 | > 100 | > 100 | > 100 | > 100 | > 100 | > 100 | > 100 | > 100 | > 100 | > 100 | 91 | > 100 | > 100 | > 100 | > 100 | > 100
10 | COc1ccccc1-n1c(NN)nc2ccc(Br)cc2c1=O | > 100 | > 100 | > 100 | > 100 | 68.8 | > 100 | > 100 | > 100 | > 100 | > 100 | > 100 | > 100 | > 100 | > 100 | > 100 | 53.1 | > 100 | – | > 100
11 | CCOC(=O)c1nc2ccccc2nc1Nc1ccc(OC)cc1 | > 100 | > 100 | 83.9 | > 100 | > 100 | 66.6 | > 100 | > 100 | 55.7 | 93.2 | > 100 | > 100 | 30.7 | 56.6 | > 100 | > 100 | > 100 | > 100 | > 100
12 | O=C(Cc1ccc([N+](=O)[O-])c([N+](=O)[O-])c1CC(=O)C(=O)Nc1cc(Cl)ccc1Cl)C(=O)Nc1cc(Cl)ccc1Cl | > 100 | 52.5 | > 100 | > 100 | > 100 | > 100 | > 100 | > 100 | > 100 | > 100 | 70.1 | > 100 | > 100 | > 100 | > 100 | > 100 | > 100 | > 100 | > 100
13 | COc1ccc(NC(=O)CC(=O)NNC(Sc2ccccc2)c2cc(N=Nc3ccc(Br)cc3)ccc2O)cc1 (centres undefined) | > 10 | > 10 | > 10 | > 10 | > 10 | > 10 | > 10 | > 10 | > 10 | > 10 | > 10 | > 10 | > 10 | > 10 | > 10 | > 10 | > 10 | > 10 | > 10
14 | NC(=O)NNCc1c(-c2ccccc2)no[n+]1[O-] | > 100 | > 100 | > 100 | > 100 | > 100 | > 100 | > 100 | > 100 | > 100 | > 100 | > 100 | > 100 | > 100 | > 100 | > 100 | > 100 | > 100 | > 100 | > 100
15 | CC1(C)S[C@H](CN)N[C@H]1C(=O)OC(c1ccccc1)c1ccccc1 | 55.8 | 33.8 | – | > 100 | > 100 | 81.4 | 63.6 | > 100 | > 100 | > 100 | > 100 | > 100 | > 100 | > 100 | > 100 | 35.7 | > 100 | > 100 | 54.2
16 | COc1cc(OC)c2c(=O)c3c([N+](=O)[O-])cccc3n(C)c2c1 | > 100 | > 100 | > 100 | > 100 | > 100 | > 100 | > 100 | > 100 | > 100 | > 100 | > 100 | > 100 | > 100 | > 100 | > 100 | > 100 | > 100 | > 100 | > 100
17 | N#Cc1ncn(CCO)c1N | > 100 | > 100 | > 100 | > 100 | > 100 | > 100 | > 100 | > 100 | > 100 | > 100 | > 100 | > 100 | > 100 | > 100 | > 100 | > 100 | > 100 | > 100 | > 100
18 | Oc1cc(CN2CCOCCOCCOCCOCC2)c(O)cc1CN1CCOCCOCCOCCOCC1 | > 75.2 | 39.6 | > 100 | > 100 | 61.6 | > 72.2 | 43.8 | > 85 | 34 | > 100 | > 56.8 | > 100 | > 100 | 38.9 | > 59.2 | 52.4 | > 100 | 43.4 | 63.8
19 | COc1cc(/C=N/c2ccccn2)cc(OC)c1OC | > 100 | > 100 | > 100 | > 100 | > 100 | > 100 | > 100 | > 100 | > 100 | > 100 | > 100 | > 100 | > 100 | > 100 | > 100 | > 100 | > 100 | > 100 | > 100
